Reference: patent US20240158369A1, “PYRIMIDINE COMPOUND AS WEE-1 INHIBITOR” (WIGEN BIOMEDICINE TECHNOLOGY (SHANGHAI) CO., LTD., priority 2021, published 2024)

Assays:
[1] = target: recombinant protein Wee-1 (Homo sapiens (Human), UniProt P30291); assay: HTRF assay for inhibiting enzymatic activity of recombinant protein Wee-1; type: biochemical; conditions: compounds up to 200 nM, read-out: (IC50) Inhibitory activity against recombinant protein Wee-1
In short: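 Compound (up to 200 nM, 1:5 series) preincubated with Wee-1 in kinase buffer 30 min at 37° C; Fluorescein-PolyGAT and ATP then added, reaction run 90 min at room temperature. Antibody detection 60 min; 520/495 nm ratio versus DMSO gave % inhibition and IC50.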

MIA PaCa-2 cells [2] = assay: In-vitro anti-proliferative activity on MIA PaCa-2 cells (intracellular ATP content, 72 h); type: cell-based; conditions: Homo sapiens, compound alone, read-out: IC50 (nM) antiproliferative activity against MIA PaCa-2 cells
Experimental: (§1) MIA PaCa-2 cells were seeded on a 384-well plate at 3000 cells/well. After overnight adherence culture, DMSO or the compounds serially 1:5-diluted from 5 μM were added. The viability was assessed 72 h after dosing by measuring the intracellular ATP content. The inhibition percentage of viable cells by the compounds was calculated by comparing with the DMSO group, and the IC50 value was calculated.

MIA PaCa-2 cells [3] = assay: In-vitro anti-proliferative activity in combination with gemcitabine on MIA PaCa-2 cells; type: cell-based; conditions: 72 h
Experimental: as §1, with “cells/well, and 20 nM or 200 nM gemcitabine (GMC) was added.” for “cells/well.”, “100 nM” for “5 μM”

[4] = with 20 nM gemcitabine, read-out: in combination with 20 nM GMC IC50

Sequence of recombinant protein Wee-1 (P30291 whole entry): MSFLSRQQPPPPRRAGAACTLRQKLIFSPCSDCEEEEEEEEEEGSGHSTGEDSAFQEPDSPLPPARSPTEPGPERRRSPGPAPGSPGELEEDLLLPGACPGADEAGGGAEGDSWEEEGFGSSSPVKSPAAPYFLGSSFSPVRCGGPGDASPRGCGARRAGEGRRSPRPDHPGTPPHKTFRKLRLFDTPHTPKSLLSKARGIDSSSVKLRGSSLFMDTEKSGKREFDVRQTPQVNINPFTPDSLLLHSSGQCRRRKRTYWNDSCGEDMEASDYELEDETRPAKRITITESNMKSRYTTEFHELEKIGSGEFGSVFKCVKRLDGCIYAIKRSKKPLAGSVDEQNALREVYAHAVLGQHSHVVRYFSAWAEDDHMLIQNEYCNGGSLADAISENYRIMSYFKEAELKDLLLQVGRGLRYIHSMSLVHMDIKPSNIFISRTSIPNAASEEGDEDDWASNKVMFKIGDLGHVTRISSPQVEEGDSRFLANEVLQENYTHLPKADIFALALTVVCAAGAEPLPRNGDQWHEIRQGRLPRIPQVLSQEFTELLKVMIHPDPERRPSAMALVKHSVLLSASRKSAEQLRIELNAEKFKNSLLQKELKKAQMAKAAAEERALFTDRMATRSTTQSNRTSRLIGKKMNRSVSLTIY

Question: For `CN1CCc2ccc(Nc3ncc(C#N)c(Nc4cccc(N=S(C)(C)=O)n4)n3)cc2C1` [Compound 1], which IC50 [1] is on record?
Answer: The IC50 was at most 10 nM.

Question: And the IC50 (MIA PaCa-2 cells [2])?
Answer: The IC50 was 735 nM.

Question: And the IC50 (MIA PaCa-2 cells [3]; [4])?
Answer: Its IC50 is 4.6 nM.

Question: Which IC50 [1] does the source give for `CN1CCc2ccc(Nc3ncc(C4CC4)c(Nc4cccc(N=S(C)(C)=O)n4)n3)cc2C1` [Compound 3] here?
Answer: Its IC50 is over 50 nM.

Question: And the IC50 (MIA PaCa-2 cells [2])?
Answer: The IC50 was 879 nM.

Question: And the IC50 (MIA PaCa-2 cells [3]; with 200 nM gemcitabine, read-out: in combination with 200 nM GMC IC50)?
Answer: The IC50 was over 100 nM.

Question: What does the source list for `CN1CCc2ccc(Nc3ncc(P(C)(C)=O)c(Nc4cccc(N=S(C)(C)=O)n4)n3)cc2C1` [Compound 4]?
Answer: IC50 [1]: > 50 nM; IC50 (MIA PaCa-2 cells [2]): > 5000 nM; IC50 (MIA PaCa-2 cells [3]; [4]): > 100 nM

Question: How did the IC50 [1] turn out when `CN1CCc2ccc(Nc3ncc(C(F)(F)F)c(Nc4cccc(N=S(C)(C)=O)n4)n3)cc2C1` [Compound 2] was run?
Answer: Its IC50 is over 50 nM.

Question: What about the IC50 (MIA PaCa-2 cells [2]) of the same molecule?
Answer: The IC50 was 398 nM.

Question: And the IC50 (MIA PaCa-2 cells [3]; [4])?
Answer: The IC50 was 30 nM.
